Values of other authors as cited in US20240415829A1, “METHODS AND COMPOSITIONS FOR THE TREATMENT OF DRUG OVERDOSE” (priority 2023, published 2024).

Tests used:
[1] = xylazine 0.15 mg/kg, sheep 58-69 kg
[2] = human clinical trials
[3] = results from other studies; individuals with OUD, tobacco use disorder, AUD

| SMILES | sedation, respiration, blood pressure and heart rate effects [1] | adverse effects leading to termination of human trials [2] | doses supported for safe use in humans [3] |
| --- | --- | --- | --- |
| Cc1cccc(C)c1NC1=NCCCS1 [xylazine] | significant sedation/decreased respiration and decreased blood pressure/heart rate | severe hypotension and central nervous system (CNS) depressant effects | – |
| COC(=O)[C@@H]1[C@H]2C[C@H]3c4[nH]c5ccccc5c4CCN3C[C@@H]2CC[C@@H]1O [yohimbine] | – | – | up to 60 mg |
